Measured values as given in patent US20240207308A1, “METHOD FOR CULTURING DENDRITIC CELLS” (NANOFAENTECH CO., LTD., priority 2021, published 2024).

Legend:
spleen dendritic cells = experiment: Flow cytometry of CD86, MHC-II, CD80, CD40 on cultured spleen dendritic cells (self-activation); format: cell-based, mouse
Experimental: Mouse spleen dendritic cells were obtained by adding EDTA-BSS (Balanced Salt Solution) buffer and collagenase solution (DMEM containing 100 units of collagenase type IV, medium containing low glucose) to spleens of female C57BL/6 mice and cutting it with surgical scissors, mixing the same with 6 mL of collagenase treatment solution, and incubating the mixture for 30 minutes. The separated whole spleen tissue was filtered using a 70 μm cell strainer (Falcon), followed by centrifugation at 1800 rpm for 5 minutes thus to separate the cells. Red blood cells were removed by adding red blood cell lysis buffer (Sigma-Aldrich) to the cells and washed twice with RPMI-1640 medium containing 10% fetal bovine serum (FBS). Dendritic cells were reacted with CD11c^+ antibody-bound microbeads and isolated using CD11c Microbeads Ultrapure (MACS, Milteni Biotec, USA).
In FIG. 2, in order to determine whether self-activation occurs when primary dendritic cells isolated from the spleen are cultured, dendritic cells were dispensed in a 24-well plate at 2×10^5/mL, and after culturing for 6 hours in RPMI-1640 medium at 37° C. under 5% CO2 condition, the expression levels of MHC-II, CD86, CD80 and CD40 were analyzed on the surface of dendritic cells using a flow cytometer (MACSQuant VYB flow cytometer, Miltenyi Biotec). Results measured using a flow cytometer were analyzed using FlowJo v10 (Tree Star, Ashland). The expression levels of CD86, CD80 and CD40 were shown as the percentage of cells stained with CD11c, and the expression level of MHC-II was shown as mean fluorescence intensity (MFI), which is the mean fluorescence intensity of fluorescence.
In FIG. 7, when culturing spleen dendritic cells, each of the prepared peptides was added at a concentration of 200 μg/mL and the expression level of CD86 was measured 6 hours after culture. When each peptide was used alone for treatment, the expression of CD86 was not inhibited in spleen dendritic cells. […] Compared to when the cells were treated with these three kinds of peptides, the expression was not inhibited even when the two kinds of peptides were used together for treatment. * indicates statistical significance as P<0.05 or less compared to the P1, P1-2, and P2-1 conditions.
In FIG. 9, peptides containing P1 and P2 and amino acids of these peptides as well as P3 peptide in a combination of three types were added to the spleen dendritic cell culture medium, and after culturing for 6 hours, the expression level of CD86 was measured by flow cytometry.
In FIG. 24, different concentrations of LP1, LP2 and LP3 were added to reach a concentration of 800 μg/mL, and spleen dendritic cells (2×10^5/mL) were cultured for 6 hours or 24 hours, and the CD86 expression level was measured by flow cytometry (MACSQuant VYB flow cytometer, Miltenyi Biotec). The measured results were analyzed using FlowJo v10 (Tree Star, Ashland).
In FIG. 25, when spleen primary dendritic cells were dispensed at 2×10^5/mL and cultured for 24 hours while scrambled peptides of S-LP1, S-LP2 and S-LP3 were each added at a concentration of 800 μg/mL, the increase in the expression of CD86 was not inhibited. Further, the expression of CD86 was not reduced even when the scrambled peptides S-P1, S-P2 and S-P3 were simultaneously treated at a concentration of 600 μg/mL, respectively.

[1] = tested on: CD8+ T cells from OT-I transgenic mice; experiment: Proliferation of CFSE-stained OT-I CD8+ T cells co-cultured with OVA peptide-treated spleen dendritic cells; format: cell-based, mouse; conditions: LPS-stimulated dendritic cells, co-culture 1:20, 4 days
Experimental: The spleen dendritic cells (2×10^6/mL) were self-activated in a 96-well plate for 24 hours, or self-activation was inhibited by adding a linker peptide, and then either not treated with LPS or stimulated with LPS for 24 hours. Dendritic cells were cultured with 10 μM ovalbumin (OVA) peptide SIINFEKL (InvivoGen, San Diego, California, USA) for 1 hour. CD8^+ T cells were isolated from OT-I transgenic mice using a CD8 T cell isolation kit (Miltenyi Biotec) and fluorescence-stained with 10 μM carboxyfluorescein succinimidyl ester (CFSE) for 10 minutes. After co-culture of CD8^+ T cells (1×10^5) and DCs (5×10^3) treated with OVA peptide at a ratio of 1:20 for 4 days, a proliferation level of T cells was measured in percentage of cells that are negative for CFSE fluorescence-staining.

With fibronectin the “expression level of CD86 or MHC-II (self-activation)” value (spleen dendritic cells; 200 μg/mL (laminin 200 μg/mL or higher), cultured 6 hours) was “self-activation did not occur”, the “expression of CD86 and MHC-II as well as CD80 and CD40” value (spleen dendritic cells; 200 μg/mL, cultured 6 hours) was “not increased” and the “concentration most effective for self-activation of spleen dendritic cells” value (spleen dendritic cells; cultured 6 hours) was 200 µg/mL. For the same substance, the “expression of MHC-II, CD80 and CD40 in addition to CD86” value (spleen dendritic cells; cultured 6 hours or 24 hours, peptides 200 μg/mL each) was “significantly inhibited” and the “T cell proliferation (cells negative for CFSE)” value [1] was “very weak ability to induce T cell proliferation”.
